Results: US7173004B2, “Macrocyclic isoquinoline peptide inhibitors of hepatitis C virus” (Bristol-Myers Squibb Company, priority 2003, dated 2007)

target: T1, HCV NS3/4A protease complex, BMS strain (genotype 1a) (UniProt P27958, C1454S/C1711G, species not given/STRAIN_BMS); assay: Recombinant HCV NS3/4A protease complex FRET peptide assay, BMS strain; type: biochemical; settings: NS3/4A BMS Strain; activity range classes
T1 construct: b1001: DNA encoding the recombinant HCV NS3/4A protease complex (amino acids 1027 to 1711) ... a three-lysine solubilizing tail was added at the 3′-end of the NS4A coding region; fused on or other part: Three-lysine solubilising tail at the C-terminus of NS4A; A His tag is implied by the pET21b vector and Ni-NTA purification
From the text: Recombinant HCV NS3/4A Protease Complex FRET Peptide Assay
The purpose of this in vitro assay was to measure the inhibition of HCV NS3 protease complexes, derived from the BMS strain, H77C strain or J416S strain, as described below, by compounds of the present invention. This assay provides an indication of how effective compounds of the present invention would be in inhibiting HCV proteolytic activity.
Serum from an HCV-infected patient was obtained from Dr. T. Wright, San Francisco Hospital. An engineered full-length cDNA (compliment deoxyribonucleic acid) template of the HCV genome (BMS strain) was constructed from DNA fragments obtained by reverse transcription-PCR (RT-PCR) of serum RNA (ribonucleic acid) and using primers selected on the basis of homology between other genotype 1a strains. From the determination of the entire genome sequence, a genotype 1a was assigned to the HCV isolate according to the classification of Simmonds et al. (See P Simmonds, K A Rose, S Graham, S W Chan, F McOmish, B C Dow, E A Follett, P L Yap and H Marsden, J. Clin. Microbiol., 31(6), 1493–1503 (1993)). […] The infectious clones, H77C (1a genotype) and J4L6S (1b genotype) were obtained from R. Purcell (NIH) and the sequences are published in Genbank (AAB67036, see Yanagi, M., Purcell, R. H., Emerson, S. U. and Bukh, J. Proc. Natl. Acad. Sci. U.S.A. 94(16), 8738–8743 (1997); AF054247, see Yanagi, M., St Claire, M., Shapiro, M., Emerson, S. U., Purcell, R. H. and Bukh, J, Virology 244 (1), 161–172. (1998)).
The H77C and J4L6S strains were used for production of recombinant NS3/4A protease complexes. DNA encoding the recombinant HCV NS3/4A protease complex (amino acids 1027 to 1711) for these strains were manipulated as described by P. Gallinari et al. (see Gallinari P, Paolini C, Brennan D, Nardi C, Steinkuhler C, De Francesco R. Biochemistry. 38(17):5620–32, (1999)). Briefly, a three-lysine solubilizing tail was added at the 3′-end of the NS4A coding region. The cysteine in the P1 position of the NS4A-NS4B cleavage site (amino acid 1711) was changed to a glycine to avoid the proteolytic cleavage of the lysine tag. Furthermore, a cysteine to serine mutation was introduced by PCR at amino acid position 1454 to prevent the autolytic cleavage in the NS3 helicase domain. The variant DNA fragment was cloned in the pET21b bacterial expression vector (Novagen) and the NS3/4A complex was expressed in Escherichia coli strain BL21 (DE3) (Invitrogen) following the protocol described by P. Gallinari et al. (see Gallinari P, Brennan D, Nardi C, Brunetti M, Tomei L, Steinkuhler C, De Francesco R., J. Virol. 72(8):6758–69 (1998)) with modifications. Briefly, NS3/4A expression was induced with 0.5 mM Isopropyl β-D-1-thiogalactopyranoside (IPTG) for 22 hr at 20° C. A typical fermentation (10 L) yielded approximately 80 g of wet cell paste. The cells were resuspended in lysis buffer (10 mL/g) consisting of 25 mM N-(2-Hydroxyethyl)piperazine-N′-(2-Ethane Sulfonic acid) (HEPES), pH7.5, 20% glycerol, 500 mM Sodium Chloride (NaCl), 0.5% Triton-X100, 1 microgram/milliliter (“μg/mL”) lysozyme, 5 mM Magnesium Chloride (MgCl2), 1 ug/ml DnaseI, 5 mM β-Mercaptoethanol (βME), Protease inhibitor—Ethylenediamine Tetraacetic acid (EDTA) free (Roche), homogenized and incubated for 20 mins at 4° C. The homogenate was sonicated and clarified by ultra-centrifugation at 235000 g for 1 hr at 4° C. Imidazole was added to the supernatant to a final concentration of 15 mM and the pH adjusted to 8.0. The crude protein extract was loaded on a Nickel-Nitrilotriacetic acid (Ni-NTA) column pre-equilibrated with buffer B (25 mM HEPES, pH8.0, 20% glycerol, 500 mM NaCl, 0.5% Triton-X100, 15 mM imidazole, 5 mM βME). The sample was loaded at a flow rate of 1 mL/min. The column was washed with 15 column volumes of buffer C (same as buffer B except with 0.2% Triton-X100). The protein was eluted with 5 column volumes of buffer D (same as buffer C except with 200 mM Imidazole). […]

SMILES | IC50 [µM]
COc1ccc2c(OC3CC4C(=O)NC5(C(=O)O)CC5C=CCCCSCC(NC(=O)OC(C)(C)C)C(=O)N4C3)nccc2c1 (stereo not drawn) [Compound 18A, 14-tert-Butoxycarbonylamino-18-(6-methoxy-isoquinolin-1-yloxy)-2,15-dioxo-12-thia-3,16-diaza-tricyclo[14.3.0.0^4,6]nonadec-7-ene-4-carboxylic acid] | 0.05 to 0.5

same assay, conditions: NS3/4A BMS strain; activity range symbols

SMILES | IC50 [µM]
CCC1(S(=O)(=O)NC(=O)C23CC2C=CCCCSCC(NC(=O)OCC(C)(C)C)C(=O)N2CC(Oc4nccc5cc(OC)ccc45)CC2C(=O)N3)CC1 (stereo not drawn) [Compound 45] | < 0.05
CCCNC(=O)NC1CCCCCC=CC2CC2(C(=O)NS(=O)(=O)C2CC2)NC(=O)C2CC(Oc3nccc4ccccc34)CN2C1=O (stereo not drawn) [Compound 23] | < 0.05
CC(C)(OC(=O)NC1CCCCCC=CC2CC2(C(=O)NS(=O)(=O)C2CC2)NC(=O)C2CC(Oc3nccc4ccccc34)CN2C1=O)C(F)(F)F (stereo not drawn) [Compound 51] | < 0.05
CCC1(S(=O)(=O)NC(=O)C23CC2C=CCCCOC(C)C(NC(=O)OCC(C)(C)C)C(=O)N2CC(Oc4nccc5cc(OC)ccc45)CC2C(=O)N3)CC1 (stereo not drawn) [Compound 71] | < 0.05
COc1ccc2c(OC3CC4C(=O)NC5(C(=O)NS(=O)(=O)C6(C)CC6)CC5C=CCCCOC(C)C(NC(=O)OCC(C)(C)C)C(=O)N4C3)nccc2c1 (stereo not drawn) [Compound 67] | < 0.05
COc1ccc2c(OC3CC4C(=O)NC5(C(=O)NS(=O)(=O)C6(C)CC6)CC5C=CCCCOC(C)C(NC(=O)OC(C)C)C(=O)N4C3)nccc2c1 (stereo not drawn) [Compound 68] | < 0.05
COc1ccc2c(OC3CC4C(=O)NC5(C(=O)NS(=O)(=O)C6(C)CC6)CC5C=CCCCSCC(NC(=O)OCC(C)(C)C)C(=O)N4C3)nccc2c1 (stereo not drawn) [Compound 42] | < 0.05
O=C(CC1CC1)NC1CCCCCC=CC2CC2(C(=O)NS(=O)(=O)C2CC2)NC(=O)C2CC(Oc3nccc4ccccc34)CN2C1=O (stereo not drawn) [Compound 22] | < 0.05
CC(C)S(=O)(=O)NC(=O)[C@@]12C[C@H]1/C=C\CCCCC[C@H](NC(=O)OC(C)(C)C)C(=O)N1C[C@H](Oc3nccc4ccccc34)C[C@H]1C(=O)N2 [Compound 3, [18-(Isoquinolin-1-yloxy)-2,15-dioxo-4-(propane-2-sulfonylaminocarbonyl)-3,16-diaza-tricyclo-[14.3.0.0^4,6]nonadec-7-en-14-yl]-carbamic acid tert-butyl ester] | < 0.05
CCC1(S(=O)(=O)NC(=O)C23CC2C=CCOCCCC(NC(=O)OC(C)(C)C)C(=O)N2CC(Oc4nccc5cc(OC)ccc45)CC2C(=O)N3)CC1 (stereo not drawn) [Compound 30] | < 0.05
COc1ccc2c(OC3CC4C(=O)NC5(C(=O)NS(=O)(=O)C6(C)CC6)CC5C=CCCCSCC(NC(=O)OC(C)C)C(=O)N4C3)nccc2c1 (stereo not drawn) [Compound 41] | < 0.05
COc1ccc2c(OC3CC4C(=O)NC5(C(=O)NS(=O)(=O)C6CC6)CC5C=CCCCOC(C)C(NC(=O)NC5CCCC5)C(=O)N4C3)nccc2c1 (stereo not drawn) [Compound 65] | < 0.05
CS(=O)(=O)NC1CCCCCC=CC2CC2(C(=O)NS(=O)(=O)C2CC2)NC(=O)C2CC(Oc3nccc4ccccc34)CN2C1=O (stereo not drawn) [Compound 25] | < 0.05
COc1ccc2c(OC3CC4C(=O)NC5(C(=O)NS(=O)(=O)C6(C)CC6)CC5C=CCCCS(=O)(=O)CC(NC(=O)OC(C)(C)C)C(=O)N4C3)nccc2c1 (stereo not drawn) [Compound 49] | 0.05 to 0.5
COc1ccc2c(OC3CC4C(=O)NC5(C(=O)NS(=O)(=O)C6CC6)CC5C=CCOCCCC(NC(=O)OC(C)C)C(=O)N4C3)nccc2c1 (stereo not drawn) [Compound 31] | < 0.05
CCC1(S(=O)(=O)NC(=O)C23CC2C=CCCCOC(C)C(NC(=O)OC(C)C)C(=O)N2CC(Oc4nccc5cc(OC)ccc45)CC2C(=O)N3)CC1 (stereo not drawn) [Compound 72] | < 0.05
CC(C)(C)OC(=O)N[C@H]1CCCCC/C=C\[C@@H]2C[C@@]2(C(=O)NS(=O)(=O)C2(C)CC2)NC(=O)[C@@H]2C[C@@H](Oc3nccc4ccccc34)CN2C1=O [Compound 8, [18-(Isoquinolin-1-yloxy)-4-(1-methyl-cyclopropanesulfonylaminocarbonyl)-2,15-dioxo-3,16-diaza-tricyclo[14.3.0.0^4,6]nonadec-7-en-14-yl]-carbamic acid tert-butyl ester] | < 0.05
